Earlier results, collected in patent US8734826B2 (priority 2005, dated 2014).
Like-named read-outs stand apart in the source and are kept apart here.

Assays:
anal sphincter = conditions: in vivo
anal fissure = conditions: in vivo
[1] = tested on: internal anal sphincter smooth muscle
[2] = in vivo
[3] = tested on: pre-synaptic cholinergic nerve terminals; conditions: in vivo

CC(C[N+](C)(C)C)OC(N)=O (centres unmarked) [bethanecol]
resting anal pressure (anal sphincter): reducing resting anal pressure | healing of anal fissures (anal fissure): increased healing of anal fissures

O=[N+]([O-])OCC(CO[N+](=O)[O-])O[N+](=O)[O-] [nitroglycerin]
relaxation of internal anal sphincter smooth muscle [1]: cause a relaxation of internal anal sphincter smooth muscle | pain reduction and fissure healing (anal fissure): pain reduction and increased fissure healing

O=C(NC1CCN(CCc2c[nH]c3ccccc23)CC1)c1ccccc1 [indoramin]
resting anal pressure (anal sphincter; po): reduce resting anal pressure

Botulinum toxin
peri-anal thrombosis [2]: peri-anal thrombosis has been reported in some patients | voluntary squeeze pressure (anal sphincter): reduction in voluntary squeeze pressure | duration of clinical weakening of the muscle [3]: 3 to 4 months | fissure healing (anal fissure): healing of the fissure | pain and fissure healing (anal fissure): reduced pain and promoted fissure healing

CC(C)(C)NCC(O)c1ccc(O)c(CO)c1 (centres unmarked) [salbutamol]
resting anal pressure (anal sphincter): reduce resting anal pressure

O=[N+]([O-])O[C@H]1CO[C@H]2[C@@H]1OC[C@H]2O[N+](=O)[O-] [isorbide dinitrate]
relaxation of internal anal sphincter smooth muscle [1]: cause a relaxation of internal anal sphincter smooth muscle | pain reduction and fissure healing (anal fissure): pain reduction and increased fissure healing

COc1ccc([C@@H]2Sc3ccccc3N(CCN(C)C)C(=O)[C@@H]2OC(C)=O)cc1 [diltiazem]
resting anal pressure (anal sphincter): reduce resting anal pressure | resting anal pressure (anal sphincter; po): caused a reduction in resting anal pressure | fissure healing (anal fissure): results in fissure healing

N=C(N)NCCC[C@H](N)C(=O)O [L-arginine]
resting anal pressure (anal sphincter): causes a reduction in resting anal pressure
